The target in the experiment is Glutamate NMDA receptor; Grin1/Grin2c (Rattus norvegicus) (UniProt P35439+Q00961). The experiment in a line: Modulation of recombinant rat GluN1/GluN2C expressed in Xenopus laevis oocytes assessed as potentiation of glycine/glutamate-induced current by measuring receptor response at 100 uM by two-electrode voltage-clamp method relative to control. The format is cell-based. On the technique in general: Two-electrode voltage clamp is typically applied to oocytes expressing channels or transporters.

With `COC(=O)c1ccc(C2C(C(=O)c3ccncc3)=C(O)C(=O)N2CCc2c[nH]cn2)cc1` (configuration not stated), the Activity was 84%.
The same measure for `COC(=O)c1ccc(C2C(C(=O)c3ccncc3)=C(O)C(=O)N2CCc2ccncc2)cc1` (configuration not stated): 97%.

These data come from ChEMBL document CHEMBL3879913, “NMDA receptor modulators and uses related thereto” (2014).
